Reference: patent publication US20220023471A1, “PROCESS FOR DISINFECTION AND PROTECTING SURFACES FROM CONTAMINATION” (GERMINATOR MOBILE SANITIZING, LLC, priority 2020, published 2022)

Assays:
Assay in all cases: Microorganism Efficacy Test (percent reduction in culture)
Format in all cases: cell-based
[1] = system: Staphylococcus arureus (MRSA) ATCC 33592; conditions: time point 15 seconds
Description: (§1) Example 1: A Microorganism Efficacy Test for Step One using Hypochlorous acid was tested against a range of different germs and bacteria to determine its efficacy. The hypochlorous acid was added to cultures of the listed microorganisms and left for the indicated amount of time. The percent reduction of each microorganism was measured after the time period had elapsed and the results are shown below in Table 1.

[2] = system: Acinetobacter baumannii ATCC 19606; conditions: time point 15 seconds
Description: as §1

[3] = system: Proteus mirabilis ATCC7002; conditions: time point 15 seconds
Description: as §1

[4] = system: Enterococcus faecalis (VRE) ATCC 51299; conditions: time point 15 seconds
Description: as §1

[5] = system: Candida albicans ATCC 1023; conditions: time point 60 seconds
Description: as §1

[6] = system: Listeria Monocytogens ATCC 15313; conditions: time point 60 seconds
Description: as §1

[7] = system: K. pneumonia (CRE) ATCC BAA-2146; conditions: time point 60 seconds
Description: as §1

[8] = system: Propionibacterium Acnes ATCC 6919; conditions: time point 60 seconds
Description: as §1

S. aureus ATCC 6538 = conditions: time point 60 seconds
Description: as §1

[9] = system: Serratia marscesens ATCC 14756; conditions: time point 15 seconds
Description: as §1

[10] = system: Pseudomonas aeruginosa ATCC 9027; conditions: time point 60 seconds
Description: as §1

[11] = system: A brasiliensis ATCC 16404; conditions: time point 60 seconds
Description: as §1

E. Coli ATCC 8739 = conditions: time point 60 seconds
Description: as §1

C Difficile ATCC 43598 = conditions: time point 60 seconds
Description: as §1

OCl [Hypochlorous acid]
% REDUCTION [1]: >99.999%
% REDUCTION [2]: 100%
% REDUCTION [3]: >99.999%
% REDUCTION [4]: 100%
% REDUCTION [5]: >99.9999%
% REDUCTION [6]: >99.96%
% REDUCTION [7]: >99.9994%
% REDUCTION [8]: >99.99%
% REDUCTION (S. aureus ATCC 6538): >99.999%
% REDUCTION [9]: >99.999%
% REDUCTION [10]: >99.999%
% REDUCTION [11]: >99.999%
% REDUCTION (E. Coli ATCC 8739): >99.999%
% REDUCTION (C Difficile ATCC 43598): >100%
